Measurements published in US20210205329A1 (The University of North Carolina at Chapel Hill, priority 2018, published 2021).

Molecular target: T1, TLR4/MD-2 complex (Mus musculus, UniProt Q9QUK6)
T1 construct: protein extracts were collected 24 hrs post-treatment and immunoprecipitated with antibody to TLR4; endogenous in cells; host or cells: RAW264.7
T1 sequence (Q9QUK6 26-835): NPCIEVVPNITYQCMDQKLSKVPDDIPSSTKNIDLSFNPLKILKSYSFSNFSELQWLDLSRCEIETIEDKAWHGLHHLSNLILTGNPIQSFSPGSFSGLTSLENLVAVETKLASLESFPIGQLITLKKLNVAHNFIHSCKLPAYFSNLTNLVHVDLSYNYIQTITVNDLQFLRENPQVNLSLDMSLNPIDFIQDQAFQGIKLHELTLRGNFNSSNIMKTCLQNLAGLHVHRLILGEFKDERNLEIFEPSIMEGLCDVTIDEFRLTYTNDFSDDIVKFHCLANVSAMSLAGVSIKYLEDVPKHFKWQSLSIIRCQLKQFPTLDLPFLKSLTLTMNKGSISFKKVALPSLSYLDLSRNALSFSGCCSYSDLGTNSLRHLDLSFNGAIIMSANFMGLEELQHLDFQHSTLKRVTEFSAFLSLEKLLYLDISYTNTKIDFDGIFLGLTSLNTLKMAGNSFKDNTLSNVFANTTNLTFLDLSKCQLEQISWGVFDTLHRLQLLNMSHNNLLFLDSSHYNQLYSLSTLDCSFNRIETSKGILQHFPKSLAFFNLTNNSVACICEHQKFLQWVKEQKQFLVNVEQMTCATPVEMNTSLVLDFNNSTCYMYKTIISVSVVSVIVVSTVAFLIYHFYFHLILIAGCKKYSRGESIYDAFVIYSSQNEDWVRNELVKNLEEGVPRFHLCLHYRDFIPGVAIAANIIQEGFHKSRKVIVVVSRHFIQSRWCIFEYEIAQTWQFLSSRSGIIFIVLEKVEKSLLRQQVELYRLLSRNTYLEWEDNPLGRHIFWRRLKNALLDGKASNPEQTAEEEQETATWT
Assay: TLR4/MD-2 co-immunoprecipitation in LPS-treated RAW264.7 cells
Type: cell-based
Conditions: 1.0 μM; LPS 1 μg/ml; 24 hrs post-treatment
Method: Co-Immunoprecipitation Assay RAW264.7 cells [treated with LPS (1 μg/ml), 3α,5α-THP (1 μM) or pregnenolone (1 μM)] were exposed to chemical protein crosslinking (Poulopoulos et al, 2009) at 24 hrs post-treatment. Briefly, the cells were incubated (20 min on ice) with 1 mM of the cleavable, membrane-permeable crosslinker DSP (Thermo Fisher Scientific, Cat. #PG82081). Rat VTA homogenates were incubated (20 min on ice) with 200 μM of DSP. The crosslinker was quenched in 1 M Tris buffer (pH 7.5) (to a final concentration of 10-20 mM), and the material was centrifuged at 21,000×g for 15 min. Proteins from the cells were extracted with Pierce IP Lysis Buffer (Thermo Fisher Scientific, Cat. #87787) supplemented with protease and phosphatase inhibitor cocktails (Sigma). Proteins from the VTA were extracted with CelLytic MT (dialyzable mild detergent, bicine and 150 mM NaCl; Sigma Aldrich, St. Louis, Mo., USA, Cat. #C3228) supplemented with protease and phosphatase inhibitor cocktails (Sigma) according to the manufacturers instructions. […]

CC(=O)[C@H]1CC[C@H]2[C@@H]3CC[C@H]4C[C@H](O)CC[C@]4(C)[C@H]3CC[C@]12C [3α,5α-THP, (3α,5α)3-hydroxypregnan-20-one]
reduction of MD-2 co-precipitated with TLR4: 45.4±6.9%

CC(=O)[C@H]1CC[C@H]2[C@@H]3CC=C4C[C@@H](O)CC[C@]4(C)[C@H]3CC[C@]12C [pregnenolone]
reduction of MD-2 co-precipitated with TLR4: 57.2±7.3%
